Laboratory results taken from patent US20240325370A1, “THERAPEUTIC REGIMENS OF A DEGRADER OF BRD9” (FOGHORN THERAPEUTICS INC., priority 2021, published 2024).
“Also recorded” adds a separate entry of the source.

Tests used:
[1] = system: synovial sarcoma cell lines (SYO1, Yamato, HS-SY-II, and ASKA); test: Growth of synovial sarcoma cell lines (IncuCyte confluency, crystal violet, colonies); format: cell-based, human; details: 1 μM or indicated concentrations
Experimental: (§1) Cells were treated with DMSO or the BRD9 degrader, Compound 1, at indicated concentrations, and proliferation was monitored from day 7 to day 14 by measuring confluency over time using an IncuCyte live cell analysis system (FIG. 4). Growth medium and compounds were refreshed every 3-4 days.
(§2) Cells were seeded into 12-well plates and treated with DMSO, 1 μM BRD9 inhibitor, Compound 2 (also known as BI-7273, see Martin et al, J Med Chem. 59 (10): 4462-4475 (2016); see structure of compound 2 below), or 1 μM BRD9 degrader, Compound 1.
(§3) The number of cells was optimized for each cell line. Growth medium and compounds were refreshed every 3-5 days. SYO1, Yamato, A549, 293T and HS-SY-II cells were fixed and stained at day 11. ASKA cells were fixed and stained at day 23. Staining was done by incubation with crystal violet solution (0.5 g Crystal Violet, 27 ml 37% Formaldehyde, 100 mL 10×PBS, 10 mL Methanol, 863 dH20 to 1 L) for 30 min followed by 3× washes with water and drying the plates for at least 24 h at room temperature. Subsequently plates were scanned on an Odyssey CLx Imaging system (FIG. 5).
(§4) Cells were seeded into 96-well ultra-low cluster plate (Costar, #7007) in 200 μL complete media and treated at day 2 with DMSO, Staurosporin, or BRD9 degrader, Compound 1, at indicated doses (FIG. 2C). Media and compounds were changed every 5 d and cell colonies were imaged at day 14.

[2] = system: synovial sarcoma cell lines (SYO1, HS-SY-II, and ASKA); test: Crystal violet growth assay, synovial sarcoma cell lines, day 14; format: cell-based, human; details: treated daily
Experimental: (§5) Procedure: Cells were seeded into 6-well or 12-well plates and were treated daily with a BRD9 degrader (Compound 1), a bromo-domain BRD9 binder (Compound 2), E3 ligase binder (lenalidomide), DMSO, or staurosporin (positive control for cell killing), at indicated concentrations. The number of cells was optimized for each cell line. Growth media was refreshed every 5 days. By day 14, medium was removed, cells were washed with PBS, and stained using 500 μL of 0.005% (w/v) crystal violet solution in 25% (v/v) methanol for at least 1 hour at room temperature. Subsequently plates were scanned on an Odyssey CLx Imaging system.

[3] = system: non-synovial control cancer cell lines (RD, HCT116, and Calu6); test: Crystal violet growth assay, non-synovial control cancer cell lines, day 14; format: cell-based; details: treated daily
Experimental: as §5

SYO1 cells [4] = test: Apoptosis assay (Annexin V-FITC Apoptosis Detection Kit); format: cell-based, human; details: 8 days; compared to DMSO controls
Experimental: (§6) Procedure: SYO1 cells were treated for 8 or 13 days with DMSO, a BRD9 degrader (Compound 1) at 200 nM or 1 μM, or an E3 ligase binder (lenalidomide) at 200 nM. Compounds were refreshed every 5 days. Cell cycle analysis was performed using the Click-iTT Plus EdU Flow Cytometry Assay (Invitrogen). The apoptosis assay was performed using the Annexin V-FITC Apoptosis Detection Kit (Sigma A9210). Assays were performed according to the manufacturer's protocol.

[5] = system: non-synovial control cancer cell lines (293T, A549, G401); test: Growth of non-synovial control cancer cell lines; format: cell-based
Experimental: as §1, §2, §3, §4

SYO1 cells [6] = test: Cell cycle analysis (Click-iT Plus EdU Flow Cytometry Assay); format: cell-based, human; details: 200 nM or 1 μM for 8 or 13 days; compared to DMSO and lenalidomide
Experimental: as §6

[7] = system: ASKA synovial sarcoma xenografts; test: ASKA synovial sarcoma xenograft efficacy; format: in vivo; details: for Tumor Growth (%) on Day 21 / Tumor Size (mm^3) on Day 21: Mean ± SEM; for T/C (%) / TGI (%): Day 21
Experimental: A study was conducted to examine anti-tumor efficacy of compound S-D1 with BIW IV dosing of the racemate, compound D1, for 3 weeks utilizing a second xenograft model of human synovial sarcoma, ASKA. Vehicle (0.5% HPMC, 0.1% Tween 80 in water, pH 1.3 to 1.5), administered orally, was used as the general comparator for all test article responses (i.e., tumor growth and body weight changes). Pazopanib and ifosfamide, two agents currently used in clinic to treat synovial sarcoma patients were compared to compound D1 treatment alone. Pazopanib was administered orally at 40 mg/kg QD and ifosfamide was given IV at 80 mg/kg QD for the first 3 days (Days 0, 1, and 2) in the 3-week treatment period, mimicking the equivalent treatment regimens for both drugs in human patients.

[8] = 80 mg/kg QD IV Day 0 to Day 2, ASKA xenograft
[9] = 40 mg/kg QD oral 3 weeks, ASKA xenograft

COc1cc(-c2cn(C)c(=O)c3cnccc23)cc(OC)c1CN(C)CC(=O)NCCOCCOCCNc1cccc2c1C(=O)N(C1CCC(=O)NC1=O)C2=O (centres unmarked) [Compound 1]
inhibition of the growth of the cells [1]: inhibition of the growth of the cells | inhibition of the growth of the cells [2]: inhibition of the growth of the cells; also recorded: most significant growth inhibition | inhibition of the growth of the cells [3]: did not result in inhibition of the growth | numbers of early- and late-apoptotic cells (SYO1 cells [4]): increased numbers of early- and late-apoptotic cells | inhibition of the growth of the cells [5]: does not result in inhibition of the growth | numbers of cells in the S-phase of the cell cycle (SYO1 cells [6]): reduced numbers of cells in the S-phase

COc1cc(-c2cn(C)c(=O)c3cnccc23)cc(OC)c1CN(C)C [Compound 2]
inhibition of the growth of the cells [1]: inhibition of the growth of the cells | inhibition of the growth of the cells [2]: inhibition of the growth of the cells | inhibition of the growth of the cells [3]: did not result in inhibition of the growth | inhibition of the growth of the cells [5]: does not result in inhibition of the growth

O=P1(NCCCl)OCCCN1CCCl (centres unmarked) [Ifosfamide, reference compound]
Tumor Growth (%) on Day 21 [7, 8]: 820 ± 56% | Tumor Size (mm^3) on Day 21 [7, 8]: 1164 ± 126 mm^3 | T/C (%) ([7]; 80 mg/kg QD IV Day 0 to Day 2): 67.2% | TGI (%) ([7]; 80 mg/kg QD IV Day 0 to Day 2): 32.8% | tolerability (body weight) ([7]; ASKA xenograft, 3-week treatment period): transient body weight loss occurred but recovered within a few days | tumor growth inhibition achieved ([7]; pazopanib 40 mg/kg QD oral, ifosfamide 80 mg/kg QD IV Days 0, 1, 2, ASKA xenograft): partial TGI

Cc1ccc(Nc2nccc(N(C)c3ccc4c(C)n(C)nc4c3)n2)cc1S(N)(=O)=O [Pazopanib, reference compound]
Tumor Growth (%) on Day 21 [7, 9]: 480 ± 33% | Tumor Size (mm^3) on Day 21 [7, 9]: 537 ± 56 mm^3 | T/C (%) ([7]; 40 mg/kg QD oral 3 weeks): 39.4% | TGI (%) ([7]; 40 mg/kg QD oral 3 weeks): 60.6%
